# Laboratory results taken from patent US20240269139A1, “COMPOUNDS FOR TARGETED PROTEIN DEGRADATION OF KINASES” (DANA-FARBER CANCER INSTITUTE, INC., priority 2020, published 2024).
# Entries after “also recorded” stand apart in the source; their conditions may differ.
# Tested on: protein kinases (human kinome)
# Type: cell-based
# Conditions: for kinases the bifunctional compound degrades: as stated for the structure in the embodiments; for Kinase hits: kinases significantly downregulated vs DMSO (fold change cutoff −1.25, P-value<0.01), ≤8 h, 0.1-5 μM degrader, 7 cell lines; for Total no. kinase hits: number of degraded kinases per library compound
# Excerpt: Although development of targeted protein degraders requires a POI binder, among already-liganded proteins such as kinases, it was hypothesized that different targets would have a different propensity for current approaches to degrader-mediated destruction, which was termed ‘degradability’. […] It was rationalized that the probability of identifying the same kinase as a false positive in multiple treatments is low, therefore this analysis served to also assess the robustness of our data and subsequent interpretations. […] Overall, 62 protein kinases were degraded in more than 10 independent treatments, and remarkably, 9 of these (CDK4, AURKA, FER, WEE1, BLK. LIMK2, CDK6, GAK, LIMK1) were each degraded in at least 40 of the 154 independent treatments, emphasizing their predisposition to induced degradation (FIG. 1G; Appendix I).
# Next, the frequency of degradation assessment was corrected for over-representation of molecules in the full dataset by omitting replicate profiling of compounds under different experimental conditions, to remove any bias. […] Unsurprisingly, the top degradable kinases mirror those from the previous analysis (CDK4, AURKA, FER, WEE1, BLK), confirming that in sufficiently large datasets, even with over-representation of certain molecules, frequency of degradation is a good measure of general tractability.
Structure (SMILES),kinases the bifunctional compound degrades,Kinase hits,Total no. kinase hits
Cc1ncsc1-c1ccc([C@H](C)NC(=O)[C@@H]2C[C@@H](O)CN2C(=O)[C@@H](NC(=O)CCCCCCc2ccc(Nc3ncc4c(n3)-c3ccccc3NC(=O)N4)cc2)C(C)(C)C)cc1 [JWG-148],"ABL2, EPHB2, SIK2, and TYK2","ABL2, EPHB2, SIK2, TYK2",4
"CC(C)S(=O)(=O)c1ccccc1Nc1nc(Nc2ccc(N3CCN(CCOCCOCCNC(=O)CNc4ccc5c(c4)C(=O)N(C4CCC(=O)NC4=O)C5=O)CC3)cc2)ncc1Cl (stereo not shown) [LT2-49, N-(2-(2-(2-(4-(4-((5-chloro-4-((2-(isopropylsulfonyl)phenyl)amino)pyrimidin-2-yl)amino)phenyl)piperazin-1-yl)ethoxy)ethoxy)ethyl)-2-((2-(2,6-dioxopiperidin-3-yl)-1,3-dioxoisoindolin-5-yl)amino)acetamide]","CDK4, AURKA, WEE1, BLK, FER, CDK6, LIMK2, AAK1, CDK5, CDK2, ITK, CDK17, LCK, PTK2B, CDK9, CDK7, CDK13, PRKAA1, CDK12, BMP2K, and STK10","CDK4, AURKA, WEE1, BLK, FER, CDK6, LIMK2, AAK1, CDK5, CDK2, ITK, CDK17, LCK, PTK2B, CDK9, CDK7, CDK13, PRKAA1, CDK12, BMP2K, STK10",21
CNC(=O)c1ccccc1Nc1cc(Nc2ccc(N3CCN(CCOCCOCCNC(=O)CNc4cccc5c4C(=O)N(C4CCC(=O)NC4=O)C5=O)CC3)cc2OC)ncc1C(F)(F)F (stereo not shown) [MFH-5-103-1],"AURKA, CDK1O, CDK7, MAPK7, PTK2B, RPS6KA1, RPS6KA3, STK33, and WEE1","AURKA, CDK10, CDK7, MAPK7, PTK2B, RPS6KA1, RPS6KA3, STK33, WEE1",9
CCc1cnn2c(N(Cc3ccc(N)nc3)C(=O)CCOCCOCCOCCNC(=O)CNc3cccc4c3C(=O)N(C3CCC(=O)NC3=O)C4=O)cc(N3CCCC[C@H]3CCO)nc12 (stereo partly shown) [MFH-5-115-2],"CDK4. AURK4. WEE1. STK17A, PLK1, BUB1, TTK, UHMK1, MAP3K1, BUB1B, RIOK2, NUAK1, PIM2, and CSNK1A1","CDK4, AURK4, WEE1, STK17A, PLK1, BUB1, TTK, UHMK1, MAP3K1, BUB1B, RIOK2, NUAK1, PIM2, CSNK1A1",14
CNC(=O)c1ccccc1Nc1cc(Nc2ccc(N3CCN(CCCCCCCCNc4cccc5c4C(=O)N(C4CCC(=O)NC4=O)C5=O)CC3)cc2OC)ncc1C(F)(F)F (stereo not shown) [MFH-5-116-1],"AURKA, NUAK1, PTK2B, RPS6KA1, RPS6KA3, STK33, and WEE1","AURKA, NUAK1, PTK2B, KPS6KA1, RPS6KA3, STK33, WEE1",7
O=C1CCC(N2C(=O)c3cccc(NCCCCCCCCN4CCC(NC(=O)c5[nH]ncc5NC(=O)c5c(Cl)cccc5Cl)CC4)c3C2=O)C(=O)N1 (stereo not shown) [MFH-5-126-1],"AURKA, BUB1, BUB1B, CDK13, CDK14, CDK17, CDK4, CDK9, CHEK1, CLK1, CSNK1A1, CSNK1D, DAPK1, ERN1, GSK3A, GSK3B, MAP3K1, NUAK1, PIK3CG, PIM2, PLK1, RIOK2, STK17A, STK7B, TTK, UHMK1, and WEE1","AURKA, BUB1, BUB1B, CDK13, CDK14, CDK17, CDK4, CDK9, CHEK1, CLK1, CSNK1A1, CSNK1D, DAPK1, ERN1, GSK3A, GSK3B, MAP3K1, NUAK1, PIK3CG, PIM2, PLK1, RIOK2, STK17A, STK17B, TTK, UHMK1, WEE1",27
Nc1ncnc2c1c(-c1ccc(Oc3ccccc3)cc1)nn2[C@H]1CC[C@H](N2CCN(CCOCCNC(=O)CNc3cccc4c3C(=O)N(C3CCC(=O)NC3=O)C4=O)CC2)CC1 (stereo partly shown) [SB1-G-181],–,"ABL1, ABL2, AURKA, BLK, CSK, CSNK1E, FYN, LATS1, LCK, LIMK1, MAP2K5, SRC",12
"Cn1c(=O)c(-c2c(Cl)cccc2Cl)cc2cnc(Nc3ccc(OCCNC(=O)CCCCCCNC(=O)COc4cccc5c4C(=O)N(C4CCC(=O)NC4=O)C5=O)cc3)nc21 (stereo not shown) [SB1-G-192-1, N-(2-(4-((6-(2,6-dichlorophenyl)-8-methyl-7-oxo-7,8-dihydropyrido[2,3-d]pyrimidin-2-yl)amino)phenoxy)ethyl)-7-(2-((2-(2,6-dioxopiperidin-3-yl)-1,3-dioxoisoindolin-4-1413 yl)oxy)acetamido)heptanamide]","ABL1, ABL2, AURKA, BLK, CSK, EPHA3, EPHB6, FYN, GAK, LCK. LIMK2, MAPK14, NLK, PDK1, PKMYT1, SIK2, SRC, TNK2, WEE1, and YES1","ABL1, ABL2, AURKA, BLK, CSK, EPHA3, EPHB6, FYN, GAK, LCK, LIMK2, MAPK14, NLK, PDK1, PKMYT1, SIK2, SRC, TNK2, WEE1, YES1",20
O=C(CCCCCCNC(=O)COc1cccc2c1C(=O)N(C1CCC(=O)NC1=O)C2=O)NCCOc1ccc(Nc2ncc3ccc(=O)n(C4CC5CCC4C5)c3n2)cc1 (stereo not shown) [SB1-G-194],"AAK1, AURKA, AURKB, CDK6, CDK9, FGR2, STK17A, and TTK","AAK1, AURKA, AURKB, CDK6, CDK9, FGR2, STK17A, TTK",8
Nc1ncnc2c1c(-c1ccc(Oc3ccccc3)cc1)nn2[C@H]1CC[C@H](N2CCN(CCCCCCNC(=O)COc3cccc4c3C(=O)N(C3CCC(=O)NC3=O)C4=O)CC2)CC1 (stereo partly shown) [SB1-G-200],"ABL1, ABL2, BLK, CSNK1E. CSK, FYN, LATS1, LCK, LIMK1, MAP2K5, and SRC","ABL1, ABL2, BLK, CSNK1E, CSK, FYN, LATS1, LCK, LIMK1, MAP2K5, SRC",11
"CC(C)S(=O)(=O)c1ccccc1Nc1nc(Nc2ccc(N3CCN(CCOCCOCCOCCNC(=O)CNc4cccc5c4C(=O)N(C4CCC(=O)NC4=O)C5=O)CC3)cc2)ncc1Cl (stereo not shown) [SK-3-87, N-(2-(2-(2-(2-(4-(4-((5-chloro-4-((2-(isopropylsulfonyl)phenyl)amino)pyrimidin-2-yl)amino)phenyl)piperazin-1-yl)ethoxy)ethoxy)ethoxy)ethyl)-2-((2-(2,6-dioxopiperidin-3-yl)-1,3-dioxoisoindolin-4-yl)amino)acetamide]","AAK1, AURKA, BLK, CDK12, CDK17, CDK2, CDK5, CDK7, CDK9, FER, ITK, LCK, LIMK2, PTK2B, and WEE1","AAK1, AURKA, BLK, CDK12, CDK17, CDK2, CDK5, CDK7, CDK9, FER, ITK, LCK, LIMK2, PTK2B, WEE1",15
CC(C)S(=O)(=O)c1ccccc1Nc1nc(Nc2ccc(N3CCN(CCOCCOCCOCCNC(=O)CNc4ccc5c(c4)C(=O)N(C4CCC(=O)NC4=O)C5=O)CC3)cc2)ncc1Cl (stereo not shown) [SK-3-89],"AAK1, AURKA, BLK, CDK12, CDK17, CDK2, CDK4, CDK5, CDK6, CDK7, CDK9, FER, ITK, LCK, LIMK2, PTK2B, STK10, and WEE1","AAK1, AURKA, BLK, CDK12, CDK17, CDK2, CDK4, CDK5, CDK6, CDK7, CDK9, FER, ITK, LCK, LIMK2, PTK2B, STK10, WEE1",18
CC(C)S(=O)(=O)c1ccccc1Nc1nc(Nc2ccc(N3CCN(CCOCCNC(=O)CNc4ccc5c(c4)C(=O)N(C4CCC(=O)NC4=O)C5=O)CC3)cc2)ncc1Cl (stereo not shown) [SK-3-93],"AAK1, ABL2, AURKA, BLK, BMP2K, CDK12, CDK13, CDK17, CDK2, CDK4, CDK5, CDK6, CDK7, CDK9, FER, GAK, ITK. LCK, LIMK2. PRKAA1, PTK2B, RPS6KA1, SRC, and WEE1","AAK1, ABL2, AURKA, BLK, BMP2K, CDK12, CDK13, CDK17, CDK2, CDK4, CDK5, CDK6, CDK7, CDK9, FER, GAK, ITK, LCK, LIMK2, PRKAA1, PTK2B, RPS6KA1, SRC, WEE1,",24
CC(C)S(=O)(=O)c1ccccc1Nc1nc(Nc2ccc(N3CCN(CCOCCOCCNC(=O)CNc4cccc5c4C(=O)N(C4CCC(=O)NC4=O)C5=O)CC3)cc2)ncc1Cl (stereo not shown) [TL12-186],–,"AAK1, ABL1, AURKA, AURKB, BLK, BMPR1A, BUB1, BUB1B, CDK10, CDK12, CDK13, CDK17, CDK2, CDK4, CDK5, CDK6, CDK7, CDK9, COQ8A, COQ8B, CSNK1D, CSNK1E,; also recorded: EEF2K, FER, FLT1, GAK, HASPIN, IRAK4, ITK, LCK, LIMK1, LIMK2, MAP3K11, MAP3K21, MAP4K1, MAP4K3, MAPK6, MAPK7, MARK2, MARK4, NEK2, NLK, PDK2, PLK4, PRAG1, PRKAA1, PTK2B, RIOK2, RPS6KA1, SIK2, SRC, STK10, STK17A, STK35, TEC, TNK2, ULK1, ULK3, WEE1, YES1",60
COc1cc(N2CCN(CCOCCOCCNC(=O)CNc3cccc4c3C(=O)N(C3CCC(=O)NC3=O)C4=O)CC2)ccc1Nc1ncc(Cl)c(Nc2ccccc2S(=O)(=O)C(C)C)n1 (stereo not shown) [TL13-12],–,"AURKA, FER, PRK2",3
"CC(C)S(=O)(=O)c1ccccc1Nc1nc(Nc2ccc(N3CCN(CCOCCOCCC(=O)NCCNc4cccc5c4CN(C4CCC(=O)NC4=O)C5=O)CC3)cc2)ncc1Cl (stereo not shown) [TL13-97, 3-(2-(2-(4-(4-((5-chloro-4-((2-(isopropylsulfonyl)phenyl)amino)pyrimidin-2-yl)amino)phenyl)piperazin-1-yl)ethoxy)ethoxy)-N-(2-((2-(2,6-dioxopiperidin-3-yl)-1-1722 oxoisoindolin-4-yl)amino)ethyl)propenamide]","AAK1, ABL2, AURKA, AURKB, BLK, BUB1B, CDK13, CDK17, CDK2, CDK4, CDK5. CDK6. CDK7. CDK9. FER, ITK, LCK, LIMK1, LIMK2, MAP3K11, MARK4, PLK4, PRKAA1, RPS6KA1, SRC. STK10, STK38, TEC, TNK2, ULK1, ULK3, and WEE1","AAK1, ABL2, AURKA, AURKB, BLK, BUB1B, CDK13, CDK17, CDK2, CDK4, CDK5, CDK6, CDK7, CDK9, FER, ITK, LCK, LIMK1, LIMK2, MAP3K11, MARK4, PLK4, PRKAA1, RPS6KA1, SRC, STK10, STK38, TEC, TNK2, ULK1, ULK3, WEE1",32
Cc1cc(Nc2ncc(Cl)c(Nc3ccccc3S(=O)(=O)C(C)C)n2)c(OC(C)C)cc1C1CCN(CCOCCOCCNC(=O)CNc2cccc3c2C(=O)N(C2CCC(=O)NC2=O)C3=O)CC1 (stereo not shown) [TL13-112],–,"FER, PTK2, RPS6KA1",3
Cc1ccc(C(=O)Nc2ccc(CN3CCN(CCOCCOCCNC(=O)CNc4cccc5c4C(=O)N(C4CCC(=O)NC4=O)C5=O)CC3)c(C(F)(F)F)c2)cc1C#Cc1cnc2cccnn12 (stereo not shown) [TL13-150],–,"BLK, CDK5, FER, GAK, IRAK1, LCK, MAP4K2, MAPK14, RIPK1, SRC",10
CC(C)(C)c1cc(NC(=O)Nc2ccc(Oc3ccnc(C(=O)NCCOCCOCCNC(=O)CNc4cccc5c4C(=O)N(C4CCC(=O)NC4=O)C5=O)c3)cc2F)n(-c2ccc3ncccc3c2)n1 (stereo not shown) [TL13-178],"CDK4, LIMK1, MAP3K20, MAPK14, and MAST3",–,–
NC(=O)c1c(F)cccc1Nc1nc(NC2CCN(S(=O)(=O)CCNC(=O)CCCCCCCCOc3cccc4c3C(=O)N(C3CCC(=O)NC3=O)C4=O)CC2)ncc1Br (stereo not shown) [TMX-01-160-1],–,"AURKA, CDK1, CDK12, CDK16, CDK17, CDK2, CDK4, CDK5, CDK6, CDK7, CDK9, MAPK10, MAPK8, MAPK9, RPS6KA1",15
